Assay: wn = mass fraction of the nth substance listed
Settings: 101.33 kPa, Liquid

CC(C)(N)CO [2-amino-2-methylpropan-1-ol] + O
w1 = 0.3
Settings | mass density [kg/m3] | viscosity [mPa·s]
298 K | 997 | 3.637
303 K | 994.2 | 2.964
308 K | 991.4 | 2.446
313 K | 988.4 | 2.043
318 K | 985.4 | 1.696
323 K | 982.1 | 1.425
328 K | 978.8 | 1.237
333 K | 975.5 | 1.081

C1CNCCN1 [piperazine] + O
Settings | mass density, w1 = 0.0174 [kg/m3] | mass density, w1 = 0.0345 [kg/m3] | mass density, w1 = 0.0516 [kg/m3] | mass density, w1 = 0.0688 [kg/m3] | viscosity, w1 = 0.0174 [mPa·s] | viscosity, w1 = 0.0344 [mPa·s] | viscosity, w1 = 0.0516 [mPa·s] | viscosity, w1 = 0.0688 [mPa·s]
298 K | 997.8 | 998.5 | 999.4 | 1000.6 | 0.957 | 1.021 | 1.09 | 1.169
303 K | 996.5 | 997.2 | 998.1 | 999 | 0.861 | 0.915 | 0.965 | 1.035
308 K | 995.1 | 995.7 | 996.5 | 997.6 | 0.776 | 0.805 | 0.865 | 0.91
313 K | 993.2 | 994.1 | 994.7 | 995.6 | 0.681 | 0.718 | 0.763 | 0.821
318 K | 991.4 | 992.2 | 992.5 | 993.8 | 0.623 | 0.652 | 0.703 | 0.731
323 K | 989.3 | 990.2 | 990.4 | 991.4 | 0.573 | 0.592 | 0.624 | 0.663
328 K | 986.7 | 987.4 | 988 | 989.1 | 0.543 | 0.543 | 0.569 | 0.604
333 K | 984.2 | 984.5 | 985.7 | 987.4 | 0.488 | 0.505 | 0.523 | 0.546

From the NIST ThermoML archive (doi:10.1021/je050378i)
